From PMC4491112 (Cancer chemotherapy and pharmacology, 2011)
Entries after “also recorded” stand apart in the source; their conditions may differ. Where two headings read alike, the source gives them in different places.

What was measured:
[1] = format: in vivo, human; conditions: 20 mg oral
Adverse events and ECG = format: in vivo, human
[2] = Adverse events, laboratory abnormalities and ECG; format: in vivo, human; conditions: continual treatment phase, 45 mg
advanced solid tumors = experiment: Tumor response by RECIST version 1.0; format: in vivo, human
[3] = fasting state, two other phase 1 studies, CV 56%; cited from earlier work
[4] = highly soluble, highly permeable class; cited from earlier work
[5] = administered on days 1 and 4 of a weekly schedule; cited from earlier work
[6] = high-fat breakfast vs fasting, P < 0.001; cited from earlier work
[7] = 20 mg, all patients (n = 36), any grade
[8] = 20 mg, high-fat breakfast (n = 36), any grade
[9] = 20 mg, high-fat breakfast, any grade
[10] = 20 mg, normal breakfast (n = 34), any grade
[11] = 20 mg, normal breakfast, any grade
[12] = 20 mg, overnight fast (n = 34), any grade
[13] = food-effect phase, 20 mg, N = 36, Grade 3/4, regardless of study drug relationship
[14] = food-effect phase, 20 mg, N = 36, any grade, regardless of study drug relationship
[15] = food-effect phase, 20 mg, any grade
[16] = N = 29, Grade 3/4, regardless of study drug relationship
[17] = N = 29, any grade, regardless of study drug relationship

Cc1[nH]c2ccccc2c1CCNCc1ccc(/C=C/C(=O)NO)cc1 [panobinostat, Panobinostat]
effect of prandial state on mean elimination half-life ([1]; fasting vs high-fat vs normal breakfast): not altered; also recorded: unaltered | reduction of systemic exposure following food ([1]; food vs fasting): 14–16% | interpatient variability of exposure (coefficient of variation) ([1]; with or without food): 59% | Cmax reduction ([1]; high-fat breakfast vs fasting): 44% | Tmax, median difference (range) ([1]; high-fat breakfast/fasting): 2.48 (–2.00 to 7.02) h | AUC(0-inf) ([1]; human, plasma, po, 20 mg, AUC0–∞, mean (CV, %), fasting (n = 33)): 176 ng·h/mL | Cmax ([1]; human, plasma, po, 20 mg, Cmax, mean (CV, %), fasting (n = 33)): 23 ng/mL | Tmax ([1]; human, plasma, po, 20 mg, Tmax, median (range), fasting (n = 33)): 1.5 h | half-life ([1]; human, plasma, po, 20 mg, t1/2, mean (CV, %), fasting (n = 33)): 14.5 h | Cmax reduction ([1]; normal breakfast vs fasting): 36% | Tmax, median difference (range) ([1]; normal breakfast/fasting): 1.45 (–2.50 to 2.02) h | Panobinostat-related fatigue (Adverse events and ECG; [7]): 16 (44.4) n (%) | Panobinostat-related nausea (Adverse events and ECG; [7]): 11 (30.6) n (%) | Panobinostat-related vomiting (Adverse events and ECG; [7]): 7 (19.4) n (%) | drug-related diarrhea, frequency (Adverse events and ECG; 20 mg, fasting, any grade): 5.9% | drug-related nausea, frequency (Adverse events and ECG; 20 mg, fasting, any grade): 14.7% | drug-related vomiting, frequency (Adverse events and ECG; 20 mg, fasting, any grade): 14.7% | Panobinostat-related fatigue (Adverse events and ECG; [8]): 5 (13.9) n (%) | Panobinostat-related nausea (Adverse events and ECG; [8]): 3 (8.3) n (%) | Panobinostat-related vomiting (Adverse events and ECG; [8]): 1 (2.8) n (%) | drug-related diarrhea, frequency (Adverse events and ECG; [9]): 0% | drug-related fatigue, frequency (Adverse events and ECG; [9]): 13.9% | drug-related nausea, frequency (Adverse events and ECG; [9]): 8.3% | drug-related vomiting, frequency (Adverse events and ECG; [9]): 2.8% | Panobinostat-related fatigue (Adverse events and ECG; [10]): 10 (29.4) n (%) | Panobinostat-related nausea (Adverse events and ECG; [10]): 8 (23.5) n (%) | Panobinostat-related vomiting (Adverse events and ECG; [10]): 5 (14.7) n (%) | drug-related diarrhea, frequency (Adverse events and ECG; [11]): 8.8% | drug-related fatigue, frequency (Adverse events and ECG; [11]): 29.4% | drug-related nausea, frequency (Adverse events and ECG; [11]): 23.5% | drug-related vomiting, frequency (Adverse events and ECG; [11]): 14.7% | Panobinostat-related fatigue (Adverse events and ECG; [12]): 1 (2.9) n (%) | Panobinostat-related nausea (Adverse events and ECG; [12]): 5 (14.7) n (%) | Panobinostat-related vomiting (Adverse events and ECG; [12]): 5 (14.7) n (%) | drug-related fatigue, frequency (Adverse events and ECG; 20 mg, overnight fast, any grade): 2.9% | patients with SAEs (Adverse events and ECG; food-effect phase, 20 mg): seven | reported grade 3 or 4 AEs (Adverse events and ECG; food-effect phase, 20 mg): eight | QTcF >480 ms or >60 ms increase from baseline (Adverse events and ECG; food-effect phase, 20 mg, 12-lead ECG): no QTcF >480 ms or >60 ms increase from baseline was observed | Abdominal pain (Adverse events and ECG; [13]): 0 (0) n (%) | Constipation (Adverse events and ECG; [13]): 0 (0) n (%) | Diarrhea (Adverse events and ECG; [13]): 1 (2.8) n (%) | Fatigue (Adverse events and ECG; [13]): 3 (8.3) n (%) | Headache (Adverse events and ECG; [13]): 0 (0) n (%) | Nausea (Adverse events and ECG; [13]): 2 (5.6) n (%) | Pyrexia (Adverse events and ECG; [13]): 0 (0) n (%) | Thrombocytopenia (Adverse events and ECG; [13]): 0 (0) n (%) | Total adverse events (Adverse events and ECG; [13]): 8 (22.2) n (%) | Vomiting (Adverse events and ECG; [13]): 2 (5.6) n (%) | Abdominal pain (Adverse events and ECG; [14]): 5 (13.9) n (%) | Constipation (Adverse events and ECG; [14]): 7 (19.4) n (%) | Diarrhea (Adverse events and ECG; [14]): 7 (19.4) n (%) | Fatigue (Adverse events and ECG; [14]): 18 (50.0) n (%) | Headache (Adverse events and ECG; [14]): 6 (16.7) n (%) | Nausea (Adverse events and ECG; [14]): 15 (41.7) n (%) | Pyrexia (Adverse events and ECG; [14]): 5 (13.9) n (%) | Thrombocytopenia (Adverse events and ECG; [14]): 5 (13.9) n (%) | Total adverse events (Adverse events and ECG; [14]): 34 (94.4) n (%) | Vomiting (Adverse events and ECG; [14]): 10 (27.8) n (%) | Fatigue, frequency (Adverse events and ECG; [15]): 50% | Nausea, frequency (Adverse events and ECG; [15]): 41.7% | Thrombocytopenia, frequency (Adverse events and ECG; [15]): 13.9% | Vomiting, frequency (Adverse events and ECG; [15]): 27.8% | study-drug related SAEs (Adverse events and ECG; food-effect phase, 20 mg, grade 3 fatigue and grade 3 vomiting): two | patients discontinued due to adverse events (Adverse events and ECG; food-effect phase, grade 3 fatigue and nausea/vomiting following a normal breakfast): one | Fatigue, overall frequency [2]: 48.3% | Nausea, overall frequency [2]: 37% | Vomiting, overall frequency [2]: 31.0% | frequency of grade 3 and 4 AEs [2]: 65.5% | grade 3/4 biochemical abnormality: hypophosphatemia [2]: 10.3% | grade 3/4 newly occurring or worsened hematologic laboratory abnormality: decreased platelet count [2]: 44.8% | Abdominal pain [2, 16]: 1 (3.4) n (%) | Anemia [2, 16]: 1 (3.4) n (%) | Anorexia [2, 16]: 0 (0.0) n (%) | Constipation [2, 16]: 0 (0.0) n (%) | Decreased platelet count [2, 16]: 3 (10.3) n (%) | Diarrhea [2, 16]: 1 (3.4) n (%) | Dyspnea [2, 16]: 0 (0.0) n (%) | Fatigue [2, 16]: 5 (17.2) n (%) | Headache [2, 16]: 0 (0.0) n (%) | Nausea [2, 16]: 1 (3.4) n (%) | Pyrexia [2, 16]: 0 (0.0) n (%) | Thrombocytopenia [2, 16]: 11 (37.9) n (%) | Total adverse events [2, 16]: 19 (65.5) n (%) | Vomiting [2, 16]: 2 (6.9) n (%) | Abdominal pain [2, 17]: 6 (20.7) n (%) | Anemia [2, 17]: 5 (17.2) n (%) | Anorexia [2, 17]: 10 (34.5) n (%) | Constipation [2, 17]: 3 (10.3) n (%) | Decreased platelet count [2, 17]: 6 (20.7) n (%) | Diarrhea [2, 17]: 8 (27.6) n (%) | Dyspnea [2, 17]: 7 (24.1) n (%) | Fatigue [2, 17]: 14 (48.3) n (%) | Headache [2, 17]: 5 (17.2) n (%) | Nausea [2, 17]: 11 (37.9) n (%) | Pyrexia [2, 17]: 3 (10.3) n (%) | Thrombocytopenia [2, 17]: 15 (51.7) n (%) | Total adverse events [2, 17]: 26 (89.7) n (%) | Vomiting [2, 17]: 9 (31.0) n (%) | Thrombocytopenia, frequency ([2]; any grade): 51.7% | Thrombocytopenia, frequency ([2]; grade 3/4): 37.9% | patients with QTc-interval abnormalities ([2]; QTcF >500 ms and/or increase >60 ms from baseline): two | progressive disease, share of patients (advanced solid tumors; N = 36, RECIST): 58.3% | partial response, share of patients (advanced solid tumors; N = 36, best response, RECIST): 2.8% | stable disease, share of patients (advanced solid tumors; N = 36, best response, RECIST): 16.7% | mean AUC0–∞ [3]: 183 ng·h/mL | Biopharmaceutics Classification System class [4]: Class I like | accumulation [5]: did not accumulate

O=C(CCCCCCC(=O)Nc1ccccc1)NO [vorinostat]
delay in Tmax by food [6]: 2.5 h
